± gives the expanded uncertainty stated by the source.

The nature of this series: an = ratio of the nth substance listed. Conditions: 308.15 K, 100 kPa, Liquid; for speed of sound: Single path-length method; for mass density: Vibrating tube method.

Usually speed of sound stands for how fast a sound wave travels through the sample. In general, mass density refers to the mass of a sample divided by its volume. Turning to `CC(C)O` [propan-2-ol] + O, the speed of sound was found to be 1551.7 ± 0.6 m/s (a1 = 0.05), 1566.2 ± 0.6 m/s (a1 = 0.075) and 1569.7 ± 0.6 m/s (a1 = 0.1). Besides, the mass density reads like this: (a1 = 0.05) 993.1 ± 10 kg/m3; (a1 = 0.075) 991.8 ± 10 kg/m3; (a1 = 0.1) 987.6 ± 10 kg/m3.

As for `CO` [methanol] + O, the speed of sound reads like this: (a1 = 0.05) 1533.2 ± 0.5 m/s; (a1 = 0.1) 1543.5 ± 0.5 m/s; (a1 = 0.15) 1566.7 ± 0.5 m/s. Besides, the mass density is on record as 988.6 ± 10 kg/m3 (a1 = 0.05), 980.6 ± 10 kg/m3 (a1 = 0.1) and 971 ± 10 kg/m3 (a1 = 0.15).

Take `CCO` [ethanol] + O: the speed of sound by setting is: (a1 = 0.05) 1542.9 ± 0.6 m/s; (a1 = 0.1) 1559.2 ± 0.6 m/s; (a1 = 0.15) 1590.4 ± 0.6 m/s. Moreover, the mass density runs as follows: (a1 = 0.05) 990.6 ± 10 kg/m3; (a1 = 0.1) 982.8 ± 10 kg/m3; (a1 = 0.15) 971.7 ± 10 kg/m3.

The record behind these values is the NIST ThermoML archive (doi:10.1021/acs.jced.8b00723).
